From ChEMBL document CHEMBL6182857, “Targeting biofilm formation in Candida albicans with halogenated pyrrolopyrimidine derivatives” (Eur J Med Chem, 2025)
Active and inactive are the calls of the source. The calls are words filed in the database; no cut-off is given here.

Tests used:
Candida albicans [1] = experiment: Antibiofilm activity against fluconazole-resistant Candida albicans DAY185 assessed as inhibition of biofilm formation at 50 ug/ml measured after 24 hrs by crystal violet staining based analysis relative to control; format: functional
Candida albicans [2] = experiment: Antibiofilm activity against fluconazole-resistant Candida albicans DAY185 assessed as inhibition of biofilm formation at 5 ug/ml measured after 24 hrs by crystal violet staining based analysis; format: functional, organism-based; settings: dose 5.0 µg/ml
Candida albicans [3] = experiment: Antibiofilm activity against fluconazole-resistant Candida albicans DAY185 assessed as inhibition of biofilm formation at 7 ug/ml measured after 24 hrs by crystal violet staining based analysis relative to control; format: functional
Candida albicans [4] = experiment: Antibiofilm activity against fluconazole-resistant Candida albicans DAY185 assessed as inhibition of biofilm formation at 10 to 20 ug/ml measured after 24 hrs by 2D/3D imaging analysis relative to control; format: functional; settings: dose 10-20 µg/ml, at 10 to 20 µg/mL
Candida albicans [5] = experiment: Antibiofilm activity against fluconazole-resistant Candida albicans DAY185 assessed as inhibition of biofilm formation at 5 ug/ml measured after 24 hrs by 2D/3D imaging analysis; format: functional, organism-based; settings: dose 5.0 µg/ml
Candida albicans [6] = experiment: Inhibition of yeast to hypha transition in fluconazole-resistant Candida albicans DAY185 assessed as decrease in cell aggregation at 5 to 20 ug/ml measured after 24 hrs by SEM analysis; format: functional, organism-based; settings: dose 5-20 µg/ml
Candida albicans [7] = experiment: Inhibition of yeast to hypha transition in fluconazole-resistant Candida albicans DAY185 assessed as decrease in germ tube formation at 5 to 20 ug/ml measured after 24 hrs by SEM analysis; format: functional, organism-based; settings: dose 5-20 µg/ml
Candida albicans [8] = experiment: Inhibition of yeast to hypha transition in fluconazole-resistant Candida albicans DAY185 assessed as decrease in filamentous growth at 5 to 20 ug/ml measured after 24 hrs by SEM analysis; format: functional, organism-based; settings: dose 5-20 µg/ml
Candida albicans [9] = experiment: Inhibition of yeast to hypha transition in fluconazole-resistant Candida albicans DAY185 assessed as decrease in hyphal development at >=10 ug/ml measured after 24 hrs by SEM analysis relative to control; format: functional; settings: dose >= 10 µg/ml
Candida albicans [10] = experiment: Inhibition of yeast to hypha transition in fluconazole-resistant Candida albicans DAY185 assessed as decrease in hyphal growth at 5 to 20 ug/ml measured after 24 hrs by SEM analysis; format: functional, organism-based; settings: dose 5-20 µg/ml
Candida albicans [11] = experiment: Inhibition of yeast to hypha transition in fluconazole-resistant Candida albicans DAY185 assessed as decrease in hyphal adhesion at 5 to 20 ug/ml measured after 24 hrs by SEM analysis; format: functional, organism-based; settings: dose 5-20 µg/ml
Candida albicans [12] = experiment: Downregulation of ALS3 mRNA level in fluconazole-resistant Candida albicans DAY185 assessed as fold decrease at 50 ug/ml incubated for 6 hrs by qRT-PCR analysis relative to control; format: functional; settings: dose 50.0 µg/ml
Candida albicans [13] = experiment: Downregulation of HWP1 mRNA level in fluconazole-resistant Candida albicans DAY185 assessed as fold decrease at 50 ug/ml incubated for 6 hrs by qRT-PCR analysis relative to control; format: functional; settings: dose 50.0 µg/ml
Candida albicans [14] = experiment: Upregulation of YWP1 mRNA level in fluconazole-resistant Candida albicans DAY185 assessed as fold increase at 50 ug/ml incubated for 6 hrs by qRT-PCR analysis relative to control; format: functional; settings: dose 50.0 µg/ml
Candida albicans [15] = experiment: Downregulation of ECE1 mRNA level in fluconazole-resistant Candida albicans DAY185 assessed as fold decrease at 50 ug/ml incubated for 6 hrs by qRT-PCR analysis relative to control; format: functional; settings: dose 50.0 µg/ml
Candida albicans [16] = experiment: Upregulation of CDR11 mRNA level in fluconazole-resistant Candida albicans DAY185 assessed as fold increase at 50 ug/ml incubated for 6 hrs by qRT-PCR analysis relative to control; format: functional; settings: dose 50.0 µg/ml
Candida albicans [17] = experiment: Upregulation of GST3 mRNA level in fluconazole-resistant Candida albicans DAY185 assessed as fold increase at 50 ug/ml incubated for 6 hrs by qRT-PCR analysis relative to control; format: functional; settings: dose 50.0 µg/ml
Candida albicans [18] = experiment: Upregulation of IFD6 mRNA level in fluconazole-resistant Candida albicans DAY185 assessed as fold increase at 50 ug/ml incubated for 6 hrs by qRT-PCR analysis relative to control; format: functional; settings: dose 50.0 µg/ml
Candida albicans [19] = experiment: Upregulation of UCF1 mRNA level in fluconazole-resistant Candida albicans DAY185 assessed as fold increase at 50 ug/ml incubated for 6 hrs by qRT-PCR analysis relative to control; format: functional; settings: dose 50.0 µg/ml
Candida albicans [20] = experiment: Upregulation of ZAP1 mRNA level in fluconazole-resistant Candida albicans DAY185 assessed as fold increase at 50 ug/ml incubated for 6 hrs by qRT-PCR analysis relative to control; format: functional; settings: dose 50.0 µg/ml
Candida albicans [21] = experiment: Effect on UME6 mRNA level in fluconazole-resistant Candida albicans DAY185 at 50 ug/ml incubated for 6 hrs by qRT-PCR analysis; format: functional; settings: dose 50.0 µg/ml
Brassica rapa = experiment: Toxicity in Brassica rapa assessed as seed germination rate at 10 to 100 ug/ml treated for 4 days relative to control; format: organism-based; settings: in vivo, 96 h, at 10 to 100 µg/mL, dose 10-100 µg/ml, time 4 day
[22] = Toxicity in Caenorhabditis elegans assessed as nematode survival at higher concentrations treated for 10 days; settings: 240 h, time 10 day
Candida albicans [23] = experiment: Antibiofilm activity against fluconazole-resistant Candida albicans DAY185 assessed as inhibition of biofilm formation on bio-compatible PLGA surface coated with compound at 5 to 10 ug/ml incubated for 24 hrs by CLSM analysis; format: functional, organism-based; settings: dose 5-10 µg/ml
Candida albicans [24] = experiment: Antibiofilm activity against fluconazole-resistant Candida albicans DAY185 assessed as reduction in biofilm thickness on bio-compatible PLGA surface coated with compound at 5 to 10 ug/ml incubated for 24 hrs by CLSM analysis; format: functional, organism-based; settings: dose 5-10 µg/ml
Candida albicans [25] = experiment: Antibiofilm activity against fluconazole-resistant Candida albicans DAY185 assessed as reduction in overall biofilm mass on bio-compatible PLGA surface coated with compound at 5 to 10 ug/ml incubated for 24 hrs by CLSM analysis; format: functional, organism-based; settings: dose 5-10 µg/ml
Candida albicans [26] = experiment: Antibiofilm activity against fluconazole-resistant Candida albicans DAY185 assessed as reduction in biofilm mass on bio-compatible PLGA surface coated with compound incubated for 24 hrs by COMSTAT analysis; format: functional, organism-based
Candida albicans [27] = experiment: Antibiofilm activity against fluconazole-resistant Candida albicans DAY185 assessed as reduction in mean biofilm thickness on bio-compatible PLGA surface coated with compound incubated for 24 hrs by COMSTAT analysis; format: functional, organism-based
Candida albicans [28] = experiment: Antibiofilm activity against fluconazole-resistant Candida albicans DAY185 assessed as reduction in substratum coverage on bio-compatible PLGA surface coated with compound at 5 ug/ml incubated for 24 hrs by COMSTAT analysis; format: functional, organism-based; settings: dose 5.0 µg/ml
Candida albicans [29] = experiment: Additive antibiofilm activity against fluconazole-resistant Candida albicans DAY185 assessed as inhibition of biofilm formation at 5 ug/ml measured after 24 hrs in presence of AMB by crystal violet staining based analysis relative to control; format: functional, organism-based; settings: dose 5.0 µg/ml
Candida albicans [30] = experiment: Antibiofilm activity against Candida albicans ATCC 10231 assessed as inhibition of biofilm formation by crystal violet staining based analysis; format: functional, organism-based
Candida albicans [31] = experiment: Additive antibiofilm activity against fluconazole-resistant Candida albicans DAY185 assessed as inhibition of biofilm formation at 5 ug/ml measured after 24 hrs in presence of BTZ by crystal violet staining based analysis relative to control; format: functional, organism-based; settings: dose 5.0 µg/ml
Candida albicans [32] = experiment: Antibiofilm activity against Candida albicans KCCM 12552 assessed as inhibition of biofilm formation by crystal violet staining based analysis; format: functional, organism-based
[Candida] auris [33] = Antibiofilm activity against Candida auris KCTC 17809 assessed as inhibition of biofilm formation by crystal violet staining based analysis; format: functional, organism-based; settings: Candidozyma auris
[Candida] auris [34] = Antibiofilm activity against Candida auris KCTC 17810 assessed as inhibition of biofilm formation by crystal violet staining based analysis; format: functional, organism-based; settings: Candidozyma auris

Clc1nc(Cl)c2c(I)c[nH]c2n1
inhibition at 50 µg/mL (Candida albicans [1]): > 85%
inhibition (Candida albicans [2]): Active
inhibition at 7 µg/mL (Candida albicans [3]): 100%
inhibition (INH) (Candida albicans [4]): ~100%
inhibition (Candida albicans [5]): Active
inhibition (Candida albicans [6]): Active
inhibition (Candida albicans [7]): Active
inhibition (Candida albicans [8]): Active
inhibition (INH) (Candida albicans [9]): 100%
inhibition (Candida albicans [10]): Active
inhibition (Candida albicans [11]): Active
fold change (FC) (Candida albicans [12]): 8
fold change (FC) (Candida albicans [13]): 57
fold change (FC) (Candida albicans [14]): 55
fold change (FC) (Candida albicans [15]): 143
fold change (FC) (Candida albicans [16]): 138
fold change (FC) (Candida albicans [17]): 58
fold change (FC) (Candida albicans [18]): 82
fold change (FC) (Candida albicans [19]): 37
fold change (FC) (Candida albicans [20]): 10
Activity (Candida albicans [21]): No effect
Activity (Brassica rapa): > 90%
Activity [22]: Toxic
inhibition (Candida albicans [23]): Active; Significant Effect Even At Lower Concentration
Activity (Candida albicans [24]): Active; More Pronounced Effects Were Observed At Higher Concentration
Activity (Candida albicans [25]): Active; More Pronounced Effects Were Observed At Higher Concentration
Activity (Candida albicans [26]): Dose-dependent-effect; Nearly Undetectable Levels Were Observed At 5 Ug/Ml
Activity (Candida albicans [27]): Dose-dependent-effect; Nearly Undetectable Levels Were Observed At 5 Ug/Ml
Activity (Candida albicans [28]): Active
inhibition (Candida albicans [29]): Active
inhibition (Candida albicans [30]): Dose-dependent-effect
inhibition (Candida albicans [31]): Active
inhibition (Candida albicans [32]): Dose-dependent-effect
inhibition ([Candida] auris [33]): Dose-dependent-effect
inhibition ([Candida] auris [34]): Dose-dependent-effect

Clc1ncnc2[nH]cc(Br)c12
inhibition at 50 µg/mL (Candida albicans [1]): > 85%
